Experimental data reported in patent US12250947B2, “Substituted azaspiro-cycles as herbicides” (SYNGENTA CROP PROTECTION AG, priority 2019, dated 2025).

Assays:
Format in all cases: in vivo
Details in all cases: 250 g/Ha, evaluated after 13 days
Avena fatua (AVEFA) [1] = assay: Herbicidal glasshouse test, pre-emergence, AVEFA
Method: (§1) Seeds of a variety of test species are sown in standard soil in pots (Lolium perenne (LOLPE), Setaria faberi (SETFA), Alopecurus myosuroides (ALOMY), Echinochloa crus-galli (ECHCG), Avena fatua (AVEFA)). […] Compounds are applied at 250 g/h. The test plants are then grown in a glasshouse under controlled conditions in a glasshouse (at 24/16° C., day/night; 14 hours light; 65% humidity) and watered twice daily. After 13 days for pre and post-emergence, the test is evaluated for the percentage damage caused to the plant. […] NT=not tested.

[2] = system: Alopecurus myosuroides (ALOMY); assay: Herbicidal glasshouse test, post-emergence, ALOMY
Method: as §1

[3] = system: Echinochloa crus-galli (ECHCG); assay: Herbicidal glasshouse test, pre-emergence, ECHCG
Method: as §1

[4] = system: Echinochloa crus-galli (ECHCG); assay: Herbicidal glasshouse test, post-emergence, ECHCG
Method: as §1

[5] = system: Alopecurus myosuroides (ALOMY); assay: Herbicidal glasshouse test, pre-emergence, ALOMY
Method: as §1

Setaria faberi (SETFA) [6] = assay: Herbicidal glasshouse test, post-emergence, SETFA
Method: as §1

Lolium perenne (LOLPE) [7] = assay: Herbicidal glasshouse test, post-emergence, LOLPE
Method: as §1

Avena fatua (AVEFA) [8] = assay: Herbicidal glasshouse test, post-emergence, AVEFA
Method: as §1

Lolium perenne (LOLPE) [9] = assay: Herbicidal glasshouse test, pre-emergence, LOLPE
Method: as §1

Setaria faberi (SETFA) [10] = assay: Herbicidal glasshouse test, pre-emergence, SETFA
Method: as §1

Compound | percentage damage caused to the plant, five-point scale, AVEFA (Avena fatua (AVEFA) [1]) | percentage damage caused to the plant, five-point scale, ALOMY [2] | percentage damage caused to the plant, five-point scale, ECHCG [3] | percentage damage caused to the plant, five-point scale, ECHCG [4] | percentage damage caused to the plant, five-point scale, ALOMY [5] | percentage damage caused to the plant, five-point scale, SETFA (Setaria faberi (SETFA) [6]) | percentage damage caused to the plant, five-point scale, LOLPE (Lolium perenne (LOLPE) [7]) | percentage damage caused to the plant, five-point scale, AVEFA (Avena fatua (AVEFA) [8]) | percentage damage caused to the plant, five-point scale, LOLPE (Lolium perenne (LOLPE) [9]) | percentage damage caused to the plant, five-point scale, SETFA (Setaria faberi (SETFA) [10])
CC#Cc1cc(C)c(C2C(=O)CC3(CCN(C(=O)C(=O)N(C)C)CC3)CC2=O)c(C)c1 [Compound A5] | 4 (4=60-79%) | 5 (5=80-100%) | 5 (5=80-100%) | 5 (5=80-100%) | 5 (5=80-100%) | 5 (5=80-100%) | 5 (5=80-100%) | 5 (5=80-100%) | 5 (5=80-100%) | 5 (5=80-100%)
CC#Cc1cc(C)c(C2C(=O)CC3(CCN(C(=O)C(=O)NC)CC3)CC2=O)c(C)c1 [Compound A4, 2-[9-(2,6-dimethyl-4-prop-1-ynyl-phenyl)-8,10-dioxo-3-azaspiro[5.5]undecan-3-yl]-N-methyl-2-oxo-acetamide] | 5 (5=80-100%) | 5 (5=80-100%) | 5 (5=80-100%) | 5 (5=80-100%) | 4 (4=60-79%) | 5 (5=80-100%) | 5 (5=80-100%) | 5 (5=80-100%) | 5 (5=80-100%) | 5 (5=80-100%)
CC#Cc1cc(C)c(C2C(=O)CC3(CCN(C(=O)C(N)=O)CC3)CC2=O)c(C)c1 [Compound A8] | 5 (5=80-100%) | 5 (5=80-100%) | 5 (5=80-100%) | 5 (5=80-100%) | 5 (5=80-100%) | 5 (5=80-100%) | 5 (5=80-100%) | 5 (5=80-100%) | 5 (5=80-100%) | 5 (5=80-100%)
CC#Cc1cc(C)c(C2=C(OC(=O)OC)CC3(CCN(C(=O)C(C)=O)CC3)CC2=O)c(C)c1 [Compound P1, [9-(2,6-dimethyl-4-prop-1-ynyl-phenyl)-10-oxo-3-(2-oxopropanoyl)-3-azaspiro[5.5]undec-8-en-8-yl] methyl carbonate] | 5 (5=80-100%) | 5 (5=80-100%) | 5 (5=80-100%) | 5 (5=80-100%) | 5 (5=80-100%) | 5 (5=80-100%) | 5 (5=80-100%) | 5 (5=80-100%) | 5 (5=80-100%) | 5 (5=80-100%)
